Patent US20130122098A1, “Method and composition to improve absorption of therapeutic agents” (Bayer HealthCare LLC, priority 2011, published 2013)

Key:
[1] = Compatibility: degradation products of aspirin/carbonate blends by HPLC; format: physicochemical
Method: The degradation products of various combinations of aspirin and various carbonates were determined for different combinations of aspirin and different grades and sources of carbonates to evaluate the compatibility and stability. Milling for about fifteen minutes appeared to slightly induce the production of free salicylic acid (FSA), but not to a significant extent. […] The results are shown in Table 3 (all blend percentages are weight percentages obtained using High Performance Liquid Chromatography (HPLC))

[2] = Particle size of milled aspirin by laser diffraction (MS 2000 Hydro S); format: physicochemical
Method: Several techniques were evaluated to determine the preferred type of milling techniques for use with aspirin in accordance with the invention. All sizes were determined using Laser Diffraction on a model MS 2000 Hydro S machine. The “d50” value is the average particle size of the milled sample, and “d90” represents the average particle size of at least 90% of the particles in the milled sample. Airjet, bead, and ball mill techniques were selected as being the most preferred in the invention because of the reliability of the techniques and the particle sizes obtained. Bead milling is less preferred because of its higher relative cost. The precipitation method and crystal synthesis also yielded small particle sizes but particles prepared using these techniques tended to agglomerate.

[3] = Air Jet Mill using helium as gas jet

Structure (SMILES) | Acetyl Salicylic Salicylic Acid ASSA (%) [1] | FSA (%) (free salicylic acid) [1] | Particle size of the milled aspirin, d90 ([2]; Air Jet Mill) | Particle size of the milled aspirin, d50 [2, 3] | Particle size of the milled aspirin, d90 [2, 3] | Particle size of the milled aspirin, d50 ([2]; Crystal Synthesis, no agglomeration) | Particle size of the milled aspirin, d50 ([2]; Crystal Synthesis, with agglomeration of milled particles) | Particle size of the milled aspirin, d50 ([2]; High energy Ball Mill) | Particle size of the milled aspirin, d50 ([2]; Planetary Ball Mill) | Particle size of the milled aspirin, d50 ([2]; Precipitation Method (Solution: Ethanol + 20% ASA with 10% PVP))
CC(=O)Oc1ccccc1C(=O)O [100% Aspirin-Milled 15 min] | 0.00% | 0.00% |  |  |  |  |  |  |  | 
CC(=O)Oc1ccccc1C(=O)O [aspirin] |  |  | < 10 μm | < 2.6 μm | < 6.6 μm | d50~30 μm and no agglomeration | d50~5 to 10 μm, with agglomeration of milled particles | d50~30-40 μm | d50~40 μm | d50~5 μm
